# In patent publication US7781565B2 (priority 2006, dated 2010):
# “Also recorded” adds a separate entry of the source.
# Tested on: NCI-60 cell lines
# Type: cell-based, human
Substance,Cell Line with which the peptide (and its tripeptide motif) is associated,Cell Line (NCI-60 cell line the peptide and its motif are associated with),Cell Line (NCI-60 cell line the peptide is associated with),Cell Line the peptide is associated with (peptide recovered from phage library selection on this NCI-60 cell line)
KSGSSVL,HL-60-Leukemia,–,–,–
KVSVASL,–,SK-MEL-5 Melanoma,–,–
KVVGRLG,–,–,HCT-116 Colon,–
KYYGLRR,RPMI-8226-Leukemia,–,–,–
LAAGGEL,RPMI-8226-Leukemia,–,–,–
LACRGPS,–,PC3 Prostate,–,–
LAGGVPG,CCRF-CEM Leukemia,–,–,–
LAGGWGS,–,–,SF-295 CNS,–
LAGLVSG,–,–,HT-29 Colon,–
LAGMRGS,–,UACC62 Melanoma,–,–
LAGRASE,–,OVCAR-4 Ovarian,–,–
LAGSGSH,Molt-4-Leukemia,–,–,–
LAGSRVS,–,OVCAR-4 Ovarian,–,–
LAGSTRR,SR Leukemia,–,–,–
LAIRGLG,–,–,SW620-Colon,–
LAQGRLA,–,–,HT-29 Colon,–
LARGVPP,–,M14 Melanoma,–,–
LASLARP,–,–,–,T-47D Breast
LASLGVG,H23-Lung,–,–,–
LCDAGPS,–,–,HCT-116 Colon,–
LDRSGGL,–,–,HCT-116 Colon,–
LEAGSQL,H226-Lung,–,–,–

Substance,Cell Line with which the peptide (and its tripeptide motif) is associated,Cell Line (NCI-60 cell line the peptide and its motif are associated with),Cell Line (NCI-60 cell line the peptide is associated with),Cell Line the peptide is associated with (peptide recovered from phage library selection on this NCI-60 cell line)
LEGVRLF,Hop-62-Lung,–,–,–
LELGRLL,HL-60-Leukemia,–,–,–
LELLSVV,–,–,SNB-75 CNS,–
LERAVRT,–,–,HT-29 Colon,–
LEVGRLF,–,SK-OV-3-3 Ovarian,–,–
LFAVAAV,Hop-62-Lung,–,–,–
LFGSSVS,–,–,–,SN12C Renal
LFHTRSS,–,IGROV1 Ovarian,–,–
LFRWGGR,–,SK-MEL-28 Melanoma,–,–
LGAGEGD,–,–,SNB-75 CNS,–
LGAGMIA,–,OVCAR-8 Ovarian,–,–
LGASLLV,–,–,–,RXF393 Renal
LGGAAVR,–,–,–,T-47D Breast
LGGARGV,–,–,–,MDA-MB-231 Breast
LGGGGLL,–,–,KM-12C Colon,–
LGGLGIH,–,–,SF-295 CNS,–
LGGLGLS,–,OVCAR-5 Ovarian,–,–
LGGLGLY,–,DU-145 Prostate,–,–
LGGLSER,–,SK-OV-3-3 Ovarian,–,–
LGGLSPH,H322-Lung,–,–,–
LGGRADF,CCRF-CEM Leukemia,–,–,–
LGGRLSL,–,–,–,MDA-MB-231 Breast

Substance,Cell Line with which the peptide (and its tripeptide motif) is associated,Cell Line (NCI-60 cell line the peptide and its motif are associated with),Cell Line (NCI-60 cell line the peptide is associated with),Cell Line the peptide is associated with (peptide recovered from phage library selection on this NCI-60 cell line)
LGGRQES,–,–,–,ACHN Renal
LGGRTIS,–,DU-145 Prostate,–,–
LGGSGRR,H23-Lung,–,–,–
LGGSRDL,–,–,HCT-116 Colon,–
LGLRAFV,H322-Lung,–,–,–
LGLRGGA,–,–,SF-268 CNS,–
LGLRGWT,–,–,–,ACHN Renal
LGLSGLG,–,–,–,NCI/ADR-RES Breast
LGLVFTR,–,–,–,T-47D Breast
LGLVHWV,–,–,–,MDA-MB-231 Breast
LGLVSTT,–,–,HT-29 Colon,–
LGMGRGV,–,–,–,SN12C Renal
LGQCGRV,HL-60-Leukemia,–,–,–
LGRVHVW,–,–,HT-29 Colon,–
LGSSGLR,–,–,–,RXF393 Renal
LGSSRVL,Hop-92-Lung,–,–,–
LGSSSHI,–,–,–,NCI/ADR-RES Breast
LGTAVSS,–,–,SF-268 CNS,–
LGVRASP,–,–,–,BT-549 Breast
LGVREVG,–,–,–,HS 578 T Breast
LGVRLAS,–,–,–,BT-549 Breast
LGYYGAV,–,–,–,T-47D Breast

Substance,Cell Line with which the peptide (and its tripeptide motif) is associated,Cell Line (NCI-60 cell line the peptide and its motif are associated with),Cell Line (NCI-60 cell line the peptide is associated with),Cell Line the peptide is associated with (peptide recovered from phage library selection on this NCI-60 cell line)
LHAGSSV,–,–,–,MDA-MB-231 Breast
LIGGLLS,–,SK-MEL-5 Melanoma,–,–
LIGGRNA,–,–,HCT-116 Colon,–
LIGGVLH,–,IGROV1 Ovarian,–,–
LIGPGGR,H322-Lung,–,–,–
LIGRASM,–,SK-OV-3-3 Ovarian,–,–
LIHAGGQ,–,–,–,ACHN Renal
LIRAVSA,H460-Lung,–,–,–
LKAGLRS,–,OVCAR-5 Ovarian,–,–
LKLLSVP,–,–,HT-29 Colon,–
LKVRGVL,–,–,HT-29 Colon,–
LLGAGTP,–,IGROV1 Ovarian,–,–
LLGIGGS,–,SK-MEL-28 Melanoma,–,–
LLLLSGS,–,–,–,RXF393 Renal
LLLRSGG,RPMI-8226-Leukemia,–,–,–
LLNPARG,–,–,–,SN12C Renal
LLRAGVR,–,–,–,UO31 Renal
LLRGLEL,HL-60-Leukemia,–,–,–
LLRGLRP,–,–,–,TK-10 Renal
LLRLSLA,H23-Lung,–,–,–
LLRPAHG,–,SK-MEL-2 Melanoma,–,–
LLRPGTV,–,–,HCC-2998-Colon,–

Substance,Cell Line with which the peptide (and its tripeptide motif) is associated,Cell Line (NCI-60 cell line the peptide and its motif are associated with),Cell Line (NCI-60 cell line the peptide is associated with),Cell Line the peptide is associated with (peptide recovered from phage library selection on this NCI-60 cell line)
LLRRAVF,Hop-62-Lung,–,–,–
LLRRGIG,–,SK-MEL-5 Melanoma,–,–
LLRRLSW,–,SK-MEL-2 Melanoma,–,–
LLRSAAP,RPMI-8226-Leukemia,–,–,–
LLRSHGV,–,–,SF-295 CNS,–
LLRSSLG,–,–,HCT-116 Colon,–
LLRSVGY,–,DU-145 Prostate,–,–
LLSAARF,–,–,–,MDA-MB-231 Breast
LLSASLV,K-562-Leukemia,–,–,–
LLSFLGR,Molt-4-Leukemia,–,–,–
LLSGVIL,–,–,LOX-IMVI Melanoma,–
LLSILKA,–,IGROV1 Ovarian,–,–
LLSLDPG,–,SK-MEL-2 Melanoma,–,–
LLSPRGT,–,–,SF-295 CNS,–
LLSRAQA,–,–,–,BT-549 Breast
LLSRRVG,–,–,SNB-75 CNS,–
LLSSRRC,–,SK-MEL-2 Melanoma,–,–
LLSTSIR,RPMI-8226-Leukemia,–,–,–
LLSTVWV,–,–,–,TK-10 Renal
LLSVTSX,–,–,–,SN12C Renal
LLVSLSS,–,–,–,RXF393 Renal
LMGRASG,SR Leukemia,–,–,–

Substance,Cell Line with which the peptide (and its tripeptide motif) is associated,Cell Line (NCI-60 cell line the peptide and its motif are associated with),Cell Line (NCI-60 cell line the peptide is associated with),Cell Line the peptide is associated with (peptide recovered from phage library selection on this NCI-60 cell line)
LMLVSGK,–,–,–,NCI/ADR-RES Breast
LNAGGSG,–,DU-145 Prostate,–,–
LPCGGLA,–,–,SNB-19 CNS; also recorded: SF-539 CNS,–
LPGRLRV,–,OVCAR-5 Ovarian,–,–
LPLGLVS,–,–,–,T-47D Breast
LPLLRGI,HL-60-Leukemia,–,–,–
LPRRAVF,–,DU-145 Prostate,–,–
LQGAGIH,–,A498 Renal,–,–
LQGSGAY,–,OVCAR-8 Ovarian,–,–
LQHLGSG,–,OVCAR-8 Ovarian,–,–
LQRGVAR,–,OVCAR-5 Ovarian,–,–
LRAGGSY,–,IGROV1 Ovarian,–,–
LRARGGH,–,–,HT-29 Colon,–
LRASLLW,–,–,HCC-2998-Colon,–
LRAVEFL,–,–,MALME-3M Melanoma,–
LRFRRGV,–,PC3 Prostate,–,–
LRGGLVS,EKVX-Lung,–,–,–
LRGSHVA,–,–,–,ACHN Renal
LRGSRQF,–,SK-MEL-28 Melanoma,–,–
LRGSVGR,–,SK-MEL-28 Melanoma,–,–
LRGSYVL,–,–,SW620-Colon,–
LRGVYVA,–,–,–,NCI/ADR-RES Breast
